Laboratory results taken from patent publication US20260365633A1, “Novel PEM Structures for SBX” (Roche Sequencing Solutions, Inc., priority 2023, published 2026).
Where a chain is given by its changes, count along the chain named.

Assays:
DNA polymerase [1] = assay: Primer extension with XNTPs, gel electrophoresis (PEM screen, 45mer template); format: biochemical; details: 45mer template, FIG. 4, vs no PEM additive (up to only around 14 XNTPs)
From the text: The Sequencing by Expansion (SBX) methodology developed by the inventors provides significant performance enhancements in sequence read efficiency and accuracy of Xpandomers relative to native DNA. However, initial transcription of the sequence of the natural DNA template onto the measurable Xpandomer relies on the ability of DNA polymerase to utilize XNTPs as substrates (the generalized structure of an XNTP is discussed herein with reference to FIG. 1A and FIG. 2). […] In an effort to improve the efficiency and accuracy of XNTP polymerization into Xpandomers, several PEMs were screened for the ability to enhance DNA polymerase primer extension reactions using XNTPs as substrates.
A representative primer extension reaction may include the following reagents: 2 pmol primer, 2.2 pmol 45mer [COMPOUND LEFT OUT] template, 50 pmol of each XNTP (XATP, XCTP, XGTP, and XTTP), 50 Mm Tris HCl, Ph 6.79, 200 Mm NaCl, 20% PEG, 5% NMS, 0.5 nmol polyphosphate 60.19, 0.3 Mm MnCl2, and 0.6 μg of purified recombinant DNA polymerase protein. Reactions may be run for 1 hour at 23 °C. Reaction products (i.e., constrained Xpandomers) are treated to cleave the phosphoramidate bonds, thereby generating linearized Xpandomers. Reaction products may be analyzed using gel electrophoresis on 4-12% acrylamide gels to resolve and visualize Xpandomer products of different lengths. For the PEM screen described above, PEMs were typically tested in the micro to millimolar range.

DNA polymerase [2] = assay: SBX nanopore sequencing of primer extension products, histogram of aligned reads; format: biochemical
From the text: To investigate the accuracy of PEM-dependent enhancement of XNTP polymerization, primer extension products were sequenced using the SBX protocol. Briefly, the constrained Xpandomer products of XNTP polymerization are cleaved to generate linearized Xpandomers. This is accomplished by first quenching the extension reaction with a solution containing 100 Mm EDTA, 2 Mm THPTA, and 2% Tween-20. Then the sample is subjected to amine modification with a solution of 1 M NaHCO3 and 1 M succinic anhydride in DMF. Cleavage of the phosphoramidate bonds is carried out with 37% HCl and linearized Xpandomers are purified with QIAquick columns (QIAGEN, Inc.).
For sequencing, protein nanopores are prepared by inserting a-hemolysin into a DphPE/hexadecane bilayer member in buffer B1, containing 2 M NH4Cl and 100 Mm HEPES, Ph 7.4. The cis well is perfused with buffer B2, containing 0.4 M NH4Cl, 0.6 M GuCl, and 100 Mm HEPES, Ph 7.4. The Xpandomer sample is heated to 70 °C for 2 minutes, cooled completely, then a 2 μL sample is added to the cis well. A voltage pulse of 90Mv/390Mv/10 μs is then applied and data is acquired via Labview acquisition software.
Sequence data is analyzed by histogram display of the population of sequence reads from a single SBX reaction. […] Representative histograms of SBX sequencing of a 45mer template are presented in FIG. 6A (no additive control) and FIG. 6B (SBX in the presence of PEM compound 1).

C4552 DNA polymerase = biological target: T1, C4552 DNA polymerase (Saccharolobus solfataricus, UniProt Q97W02, A155G/A42V/D156R/D292Y/D294N/E291S/E324K/E325K/E327K/E79L/G187P/G299W/I153V/I189F/I248T/I295S/K152A/K317Q/K321Q/K56Y/K78D/L293W/M76W/N188Y/P184Q/Q82W/Q83G/R300S/S297Y/S86E/T290K/T301W/V289W/V296Q); assay: Primer extension on HIV1, HIV2, HIV3 100mer templates with C4552 polymerase, gel; format: biochemical, Sulfolobus solfataricus; details: 0.5 Mm PEM, 30 minutes at 23 °C, three 100mer templates, FIG. 9
T1 construct: Tth SSB in reaction as additive
T1 sequence (Q97W02 1-340 A155G/A42V/D156R/D292Y/D294N/E291S/E324K/E325K/E327K/E79L/G187P/G299W/I153V/I189F/I248T/I295S/K152A/K317Q/K321Q/K56Y/K78D/L293W/M76W/N188Y/P184Q/Q82W/Q83G/R300S/S297Y/S86E/T290K/T301W/V289W/V296Q): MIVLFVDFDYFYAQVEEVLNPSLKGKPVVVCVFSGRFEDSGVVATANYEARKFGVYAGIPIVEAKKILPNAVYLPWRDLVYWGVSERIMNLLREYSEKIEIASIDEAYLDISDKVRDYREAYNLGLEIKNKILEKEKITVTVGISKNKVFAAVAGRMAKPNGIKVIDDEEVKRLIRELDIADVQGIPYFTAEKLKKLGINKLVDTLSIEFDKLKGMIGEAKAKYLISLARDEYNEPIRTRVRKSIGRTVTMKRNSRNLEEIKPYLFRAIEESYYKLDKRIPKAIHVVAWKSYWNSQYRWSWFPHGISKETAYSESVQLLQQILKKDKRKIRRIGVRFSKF
Method: PEM activity of compounds 9-11 was tested in primer extension assays using three 100mer templates, derived from the HIV1, 2, and 3 genomes. Primer extension reactions included the following reagents: 75 Mm TrisCl, Ph 8.44, 175 Mm NH40ac, 20% PEG8K, 5% NMS, 0.8 nmol PP-60.20, 0.6 Mm MnCl2, 2.3 μg Tth single-strand binding protein (SSB), 0.5 M or 1 M urea, 200 pmol each XNTP, 1.1 pmol template, 1 pmol [COMPOUND LEFT OUT] primer, 1.2 μg purified recombinant C4552 DNA polymerase, and 0.5 Mm PEM. 10 μL primer extension reactions were run for 30 minutes at 23 °C and reaction products were analyzed by gel electrophoresis.

[3] = biological target: T2, C4760 DNA polymerase (a variant of DPO4) (Saccharolobus solfataricus, UniProt Q97W02, A155G/A42V/D156R/D292Y/D294N/E291S/E324K/E325K/E327K/E63R/E79L/G187P/G299W/I153V/I189F/I248T/I295S/K152A/K317Q/K321Q/K56Y/K78D/L293W/M76W/N188Y/P184Q/Q82W/Q83G/R300S/S297Y/S86E/T290K/T301W/V289W/V296Q); assay: Primer extension on 411mer amplicon template with C4760 polymerase, gel; format: biochemical, Sulfolobus solfataricus
T2 construct: Eco or Kod SSB in reaction as additive
T2 sequence (Q97W02 1-340 A155G/A42V/D156R/D292Y/D294N/E291S/E324K/E325K/E327K/E63R/E79L/G187P/G299W/I153V/I189F/I248T/I295S/K152A/K317Q/K321Q/K56Y/K78D/L293W/M76W/N188Y/P184Q/Q82W/Q83G/R300S/S297Y/S86E/T290K/T301W/V289W/V296Q): T1 sequence (Q97W02 1-340 A155G/A42V/D156R/D292Y/D294N/E291S/E324K/E325K/E327K/E79L/G187P/G299W/I153V/I189F/I248T/I295S/K152A/K317Q/K321Q/K56Y/K78D/L293W/M76W/N188Y/P184Q/Q82W/Q83G/R300S/S297Y/S86E/T290K/T301W/V289W/V296Q) with E63R
Method: PEM activity of compound 15 was tested in primer extension assays using a 411mer amplicon template. Primer extension reactions included the following reagents: 50 Mm TrisCl, 200 Mm NH40ac, 20% PEG8K, 5% NMS, 3 nmol PP-60.20, 2 Mm MnCl2, 2 μg Kod single-strand binding protein (SSB), 1 M urea, 250 pmol each XNTP, 1 pmol template, 1 pmol [COMPOUND LEFT OUT] primer, 1.2 μg purified recombinant C4760 DNA polymerase (a variant of DPO4, see SEQ ID NO: 2), and 2 (lane 2) or 3 (lane 3) Mm PEM. 10 μL primer extension reactions were run for 20 minutes at 37 °C and reaction products were analyzed by gel electrophoresis. A representative gel showing primer extension products is presented in FIG. 12 (the position of a 277mer is indicated by the arrow). […] Remarkably, the polymerase is completely dependent upon the addition of PEM to the reaction in order to be capable of synthesizing these lengthy Xpandomer products. Even longer extension products may be obtained by optimizing various reaction parameters, e.g., extension time and/or concentrations of various additives.
PEM activity of compound 19, was tested in primer extension assays using the 411mer amplicon template. […] 10 μL primer extension reactions were run for 30 minutes at 37 °C and reaction products were analyzed by gel electrophoresis. […]

nucleic acid polymerase = assay: PEM activity summary: primer extension on 45mer, 100mer, 150mer, 222mer DNA templates, gel (Table 2); format: biochemical; details: preliminary functional characterization
Method: In some instances, the PEM compounds of the present disclosure were tested in primer extension reactions using DNA templates of the following lengths: A) 45mer; B) 100mer; C) 150mer; and D) 222mer.

O=C(O)c1ccc(-n2cc(-c3cccc(-c4cn(-c5ccc(C(=O)O)c(O)c5)nn4)n3)nn2)cc1O [Compound 1, 4,4′-(pyridine-2,6-diylbis(1H-1,2,3-triazole-4,1-diyl))bis(2-hydroxybenzoic acid)]
primer extension products with XNTPs (DNA polymerase [1]): considerably longer extension products | accuracy of sequence reads (DNA polymerase [2]; 45mer template, FIG. 6B, vs no additive (not accurate past around base 18)): increased the accuracy of the sequence reads across the entire length of the 45mer template | sequence reads (DNA polymerase [2]; 60mer template, FIG. 7A): accurate sequence reads completely to the end | sequence reads (DNA polymerase [2]; 80mer template, FIG. 7B): accurate sequence reads completely to the end

COc1cc(-c2cn(-c3ccc(C(=O)O)c(O)c3)nn2)nc(-c2cn(-c3ccc(C(=O)O)c(O)c3)nn2)c1 [Compound 9, 4,4′-((4-methoxypyridine-2,6-diyl)bis(1H-1,2,3-triazole-4,1-diyl))bis(2-hydroxybenzoic acid)]
XNTP polymerization efficiency relative to compound 1 (C4552 DNA polymerase): at least as efficiently as compound 1

O=C(O)c1ccc(-n2cc(-c3cc([N+](=O)[O-])cc(-c4cn(-c5ccc(C(=O)O)c(O)c5)nn4)n3)nn2)cc1O [Compound 11, 4,4′-((4-nitropyridine-2,6-diyl)bis(1H-1,2,3-triazole-4,1-diyl))bis(2-hydroxybenzoic acid)]
XNTP polymerization efficiency relative to compound 1 (C4552 DNA polymerase): at least as efficiently as compound 1

CCOC(=O)c1cc(-c2cn(-c3ccc(O)c(C(=O)O)c3)nn2)nc(-c2cn(-c3ccc(O)c(C(=O)O)c3)nn2)c1 [Compound 15, 5,5′-((4-(ethoxycarbonyl)pyridine-2,6-diyl)bis(1H-1,2,3-triazole-4,1-diyl))bis(2-hydroxybenzoic acid)]
XNTP polymerization relative to compound 14 ([3]; 2 or 3 Mm PEM, 20 minutes at 37 °C, FIG. 12): comparable to that of compound 14

NC(=O)c1cc(-c2cn(-c3ccc(C(=O)O)c(O)c3)nn2)nc(-c2cn(-c3ccc(C(=O)O)c(O)c3)nn2)c1 [Compound 19, 4,4′-((4-carbamoylpyridine-2,6-diyl)bis(1H-1,2,3-triazole-4,1-diyl))bis(2-hydroxybenzoic acid)]
XNTP polymerization relative to compound 14 ([3]; 0.5, 1, or 1.5 Mm PEM, 30 minutes at 37 °C, FIG. 14): less efficient than that of compound 14

CCNC(=O)c1cc(-c2cn(-c3ccc4cc(C(=O)O)ccc4c3)nn2)nc(-c2cn(-c3ccc4cc(C(=O)O)ccc4c3)nn2)c1 [Compound 206, 6-(4-{6-[1-(6-Carboxy-2-naphthyl)-1H-1,2,3-triazol-4-yl]-4-(N-ethylcarbamoyl)-2-pyridyl}-1H-1,2,3-triazol-1-yl)-2-naphthoic acid]
Functional Category: PEM effect (nucleic acid polymerase): PEM effect

CCNC(=O)c1cc(-c2cn(-c3ccc(C(=O)NCC)c(C(F)(F)F)c3)nn2)nc(-c2cn(-c3ccc(C(=O)NCC)c(C(F)(F)F)c3)nn2)c1 [Compound 236, N-Ethyl-2,6-bis{1-[4-(N-ethylcarbamoyl)-3-(trifluoromethyl)phenyl]-1H-1,2,3-triazol-4-yl}isonicotinamide]
Functional Category: PEM effect (nucleic acid polymerase): PEM effect
